Earlier results on one compound are cited in US20100172957A1, “EFLUCIMIBE MEDICAMENTS FOR PREVENTING/TREATING A DISEASE DUE TO SEBACEOUS GLAND DYSFUNCTION IN HUMANS OR ANIMALS” (GALDERMA RESEARCH & DEVELOPMENT, priority 2007, published 2010).

In this series the test system is sebum production. Particulars: current treatment, background statement.

Consider `CC1=C(/C=C/C(C)=C/C=C/C(C)=C\C(=O)O)C(C)(C)CCC1` [isotretinoin], for which the “decrease of sebum production” value is ~90%.
